Source: the supplement of paper PMC10307832

Key:
Assay in all cases: relative viability (nuclei count vs DMSO), 5 days (fraction); higher = more cells survive
Avagacestat + Linsitinib = compound: NC(=O)[C@@H](CCC(F)(F)F)N(Cc1ccc(-c2ncon2)cc1F)S(=O)(=O)c1ccc(Cl)cc1 [Avagacestat] + C[C@]1(O)C[C@@H](c2nc(-c3ccc4ccc(-c5ccccc5)nc4c3)c3c(N)nccn32)C1 [Linsitinib] (partner 1 µM)
Summary of the method: (§1)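 A single step with final 0.05% Triton X-100, 1% formaldehyde and 1 ug/ml Hoechst fixed the cells and stained nuclei 5 days after treatment. Lung cancer cell lines in 1536-well plates had been treated by pin tool the day after seeding with one drug alone or a fixed anchor-drug dose plus five library-drug doses (not always all listed) in √10 steps, and nuclei were counted on 4× images. Relative viability is the ratio of nuclei in treated wells to nuclei in vehicle wells, taken as the median of duplicate plates.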

Avagacestat + OSI-027 = compound: NC(=O)[C@@H](CCC(F)(F)F)N(Cc1ccc(-c2ncon2)cc1F)S(=O)(=O)c1ccc(Cl)cc1 [Avagacestat] + COc1cccc2cc(-c3nc([C@H]4CC[C@H](C(=O)O)CC4)n4ncnc(N)c34)[nH]c12 [OSI-027] (partner 0.5 µM)
Summary of the method: as §1

Avagacestat + Crizotinib = compound: NC(=O)[C@@H](CCC(F)(F)F)N(Cc1ccc(-c2ncon2)cc1F)S(=O)(=O)c1ccc(Cl)cc1 [Avagacestat] + C[C@@H](Oc1cc(-c2cnn(C3CCNCC3)c2)cnc1N)c1c(Cl)ccc(F)c1Cl [Crizotinib] (partner 1 µM)
Summary of the method: as §1

Avagacestat + Tozasertib = compound: NC(=O)[C@@H](CCC(F)(F)F)N(Cc1ccc(-c2ncon2)cc1F)S(=O)(=O)c1ccc(Cl)cc1 [Avagacestat] + Cc1cc(Nc2cc(N3CCN(C)CC3)nc(Sc3ccc(NC(=O)C4CC4)cc3)n2)n[nH]1 [Tozasertib] (partner 0.1 µM)
Summary of the method: as §1

Cell Line	relative viability (Avagacestat + Linsitinib; first compound 0.08 µM)	relative viability (Avagacestat + Linsitinib; first compound 0.253 µM)	relative viability (Avagacestat + Linsitinib; first compound 0.8 µM)	relative viability (Avagacestat + Linsitinib; first compound 2.53 µM)	relative viability (Avagacestat + Linsitinib; first compound 8 µM)	relative viability (Avagacestat + OSI-027; first compound 0.08 µM)	relative viability (Avagacestat + OSI-027; first compound 0.253 µM)	relative viability (Avagacestat + OSI-027; first compound 0.8 µM)	relative viability (Avagacestat + OSI-027; first compound 2.53 µM)	relative viability (Avagacestat + OSI-027; first compound 8 µM)	relative viability (Avagacestat + Crizotinib; first compound 0.08 µM)	relative viability (Avagacestat + Crizotinib; first compound 0.253 µM)	relative viability (Avagacestat + Crizotinib; first compound 0.8 µM)	relative viability (Avagacestat + Crizotinib; first compound 2.53 µM)	relative viability (Avagacestat + Crizotinib; first compound 8 µM)	relative viability (Avagacestat + Tozasertib; first compound 0.08 µM)	relative viability (Avagacestat + Tozasertib; first compound 0.253 µM)	relative viability (Avagacestat + Tozasertib; first compound 0.8 µM)	relative viability (Avagacestat + Tozasertib; first compound 2.53 µM)	relative viability (Avagacestat + Tozasertib; first compound 8 µM)
RERF-LC-KJ	0.896	0.981	0.92	0.848	0.761	0.57	0.65	0.695	0.54	0.547	0.799	0.839	0.924	0.792	0.761	0.5	0.471	0.466	0.418	0.379
LK-2	0.966	0.49	0.386		0.505	0.189	0.206	0.162	0.181	0.212	0.241	0.206	0.249	0.282	0.235	0.188	0.147	0.185	0.183	0.172
COR-L23	1.21	0.896	0.869	0.764	0.573	1.06	1.02	0.906	0.697	0.661	0.678	0.642	0.552	0.643	0.441	0.363	0.152	0.171	0.173	0.149
NCI-H1944	1.28	1.15	1.47	1.04	1.01	0.394	0.501	0.404	0.343	0.38	1.09	1.2	0.958	0.915	0.919	0.256	0.314	0.232	0.222	0.257
HCC-827	1.03	1.02	0.931	0.995	1.08	0.892	0.688	0.818	0.668	0.703	0.868	0.85	0.992	1.03	0.999	0.452	0.434	0.506	0.381	0.462
NCI-H3122	1.05	1.02	0.989	1.01	1	1.09	1.24	1.21		1.07	0.318	0.287	0.291	0.289	0.288	0.446	0.517	0.419		0.384
UMC-11	1.2	1.12	1.18	1.04	0.933	0.52	0.454	0.503	0.461	0.465	0.632	0.664	0.749	0.582	0.585	0.206	0.225	0.201	0.195	0.202
EMC-BAC-2	0.882	0.953	0.84	0.738	0.784	0.364	0.445	0.429	0.396	0.364	0.797	0.844	0.766	0.704	0.719	0.278	0.299	0.31	0.255	0.322
NCI-H1651	1.37	1.17	1.05	0.854	0.828	0.761	0.814	0.848	0.751	0.656	1	0.928	0.896	0.879	0.863	0.955	0.862	0.719	0.609	0.585
NCI-H650	1.22	0.927	1.08	0.912	0.848	0.638	0.472	0.576	0.573	0.445	0.625	0.762	0.692	0.744	0.823	0.872	0.973	0.761	0.65	0.702
LOU-NH91	0.966	0.883	1.01	0.786	0.929	0.688	0.656	0.789	0.723	0.716	0.739	0.725	0.732	0.73	0.761	0.621	0.63	0.648	0.609	0.624
H3255	1.02	1.17	0.975	0.899	0.898	0.642	0.74	0.828	0.625	0.621	1.05	1.07	1.01	0.872	0.865	0.529	0.55	0.825	0.556	0.693
NCI-H460	1.01	0.896	1.35	0.673	0.588	0.953	1.19	0.752	0.551	0.418	1.86	1.69	0.977	0.893	0.853	0.616	0.651	0.492	0.156	0.155
LCLC-103H	1.08	1.01	1.24	1.01	0.877	0.488	0.531	0.438	0.409	0.406	1.03	1.09	1.01	0.967	0.831	0.58	0.55	0.512	0.391	0.449
SK-MES-1	1.07	1.15	1.11	1.06	0.958	0.601	0.675	0.728	0.473	0.448	0.943	1.06	0.97	0.902	0.915	1.13	1.23	1.07	0.874	0.783
A-427	1.11	1.24	1.16	1.15	1.22	0.543	0.474	0.421	0.403	0.445	0.986	1.19	0.842	0.75	0.837	0.203	0.185	0.206	0.198	0.198

Cell Line	relative viability (Avagacestat + Linsitinib; first compound 0.08 µM)	relative viability (Avagacestat + Linsitinib; first compound 0.253 µM)	relative viability (Avagacestat + Linsitinib; first compound 0.8 µM)	relative viability (Avagacestat + Linsitinib; first compound 2.53 µM)	relative viability (Avagacestat + Linsitinib; first compound 8 µM)	relative viability (Avagacestat + OSI-027; first compound 0.08 µM)	relative viability (Avagacestat + OSI-027; first compound 0.253 µM)	relative viability (Avagacestat + OSI-027; first compound 0.8 µM)	relative viability (Avagacestat + OSI-027; first compound 2.53 µM)	relative viability (Avagacestat + OSI-027; first compound 8 µM)	relative viability (Avagacestat + Crizotinib; first compound 0.08 µM)	relative viability (Avagacestat + Crizotinib; first compound 0.253 µM)	relative viability (Avagacestat + Crizotinib; first compound 0.8 µM)	relative viability (Avagacestat + Crizotinib; first compound 2.53 µM)	relative viability (Avagacestat + Crizotinib; first compound 8 µM)	relative viability (Avagacestat + Tozasertib; first compound 0.08 µM)	relative viability (Avagacestat + Tozasertib; first compound 0.253 µM)	relative viability (Avagacestat + Tozasertib; first compound 0.8 µM)	relative viability (Avagacestat + Tozasertib; first compound 2.53 µM)	relative viability (Avagacestat + Tozasertib; first compound 8 µM)
NCI-H441	0.697	0.565	0.564	0.49	0.461	0.859	0.72	0.704	0.589	0.462	0.977	0.816	0.71	1.19	0.629	0.968	0.715	0.529	0.683	0.483
HCC-44	0.703	0.709	0.681	0.504	0.598	0.474	0.457	0.673	0.528	0.499	0.92	0.905	0.846	0.838	0.699	1.03	1.27	0.976	0.146	0.755
NCI-H1993	0.754	0.746	0.765	0.773	0.749	0.583	0.548	0.536	0.524	0.521	0.925	0.777	1.03	0.907	0.879	0.604	0.594	0.529	0.541	0.539
NCI-H2023	0.789	0.784	0.628	0.606	0.47	0.471	0.466	0.505	0.344	0.302	0.751	0.78	0.583	0.577	0.602	0.513	0.479	0.396	0.289	0.254
NCI-H1666	1.03	0.861	1.02	0.865	1.02	1.2	0.933	1.1	0.911	0.905	1.3	1.09	1.23	1.03	0.957	0.726	0.602	0.706	0.582	0.586
LCLC-97TM1	0.161	0.212	0.155	0.151	0.163	0.562	0.674	0.424	0.694	0.518	0.317	0.289	0.301	0.241	0.397	0.221	0.206	0.208	0.183	0.181
NCI-H1755	1.05	1.05	1.03	0.991	0.951	0.816	0.748	0.742	0.654	0.579	1.04	1.01	0.928	0.865	0.832	0.641	0.562	0.575	0.624	0.54
EPLC-272H	1.4	1.2	1.4	1.32	0.933	0.274	0.259	0.326	0.226	0.28	1.06	0.988	1.03	0.969	0.799	0.186	0.48	0.152	0.249	0.203
NCI-H2085	0.913	0.967	1.08	0.922	0.84	0.928	0.837	0.898	0.742	0.897	0.928	0.975	1	1.04	0.811	0.849	0.894	0.842	0.803	0.829
BEN	0.898	1.07	1.02	0.76	0.847	0.313	0.303	0.544	0.303	0.327	0.835	1.12	0.835	0.607	0.809	0.512	0.504	0.526	0.449	0.49
COR-L 105	0.99	0.972	0.59	0.964	0.755	0.614	0.687	0.74	0.525	0.486	0.856	0.815	0.919	0.547	0.72	0.379	0.458	0.41	0.334	0.359
ABC-1	0.979	1.06	0.866	0.786	0.737	0.442	0.537	0.637	0.401	0.418	1.05	1.59	1.53	1.09	1.09	0.164	0.16	0.178	0.187	0.179
HCC-15	0.985	0.998	0.874	0.936	0.755	0.757	0.881	0.776	0.644	0.717	0.871	0.911	0.695	0.715	0.779	0.404	0.461	0.434	0.337	0.167
SK-LU-1	1.13	1.3	1.02	0.918	0.983	0.379	0.307	0.297	0.29	0.248	0.843	0.858	0.946	0.786	0.753	0.317	0.318	0.329	0.269	0.31
NCI-H2009	1.26	1.34	1.2	1.22	1.1	0.708	0.749	0.662	0.579	0.563	1.04	1.14	1.01	1.04	0.975	0.879	0.836	0.812	0.61	0.532
NCI-H358	0.774	0.822	0.839	0.687	0.724	0.895	0.79	0.768	0.682	0.738	0.555	0.579	0.457	0.609	0.545	0.106	0.0996	0.102	0.101	0.107
